Laboratory results taken from US20230265151A1, “GIP/GLP1 CO-AGONIST COMPOUNDS” (priority 2020, published 2023).
Read-outs that look alike come from different tables or passages of the source.

What was measured:
hGCGR = biological target: T1, hGCGR (Homo sapiens, UniProt P47871); experiment: Functional cAMP formation (HTRF) in HEK-293 clonal cells expressing hGCGR, 0.1% bovine casein, without or with 1.0% human serum albumin; assay type: cell-based; settings: geometric mean
T1 construct: expressed in transfected cells
In short: (§1)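 Cells were stimulated with peptide for 30 min at 37° C, then lysed in buffer carrying cAMP-d2 and anti-cAMP Eu3+-cryptate for a competitive HTRF read after at least 60 min at room temperature. The 665/620 nm ratio was converted to nM cAMP against a standard curve.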

hGIPR = biological target: T2, hGIPR (Homo sapiens, UniProt P48546); experiment: Functional cAMP formation (HTRF) in HEK-293 clonal cells expressing hGIPR, 0.1% bovine casein, without or with 1.0% human serum albumin; assay type: cell-based; settings: for EC50: geometric mean
T2 construct: expressed in transfected cells
T2 sequence (P48546 22-466): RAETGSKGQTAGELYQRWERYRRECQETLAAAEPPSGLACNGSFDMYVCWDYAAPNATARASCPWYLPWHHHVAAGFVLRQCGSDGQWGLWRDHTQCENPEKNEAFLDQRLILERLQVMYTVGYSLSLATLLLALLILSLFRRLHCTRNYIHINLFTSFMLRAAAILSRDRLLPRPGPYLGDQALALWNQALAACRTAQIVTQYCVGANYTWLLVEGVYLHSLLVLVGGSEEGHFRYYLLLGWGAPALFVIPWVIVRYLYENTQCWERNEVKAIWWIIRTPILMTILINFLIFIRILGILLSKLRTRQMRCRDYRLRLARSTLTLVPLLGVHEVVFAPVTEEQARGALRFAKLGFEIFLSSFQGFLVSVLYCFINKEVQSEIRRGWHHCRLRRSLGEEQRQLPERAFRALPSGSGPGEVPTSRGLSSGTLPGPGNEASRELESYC
In short: as §1

[1] = cAMP, incubated at 37° C., 0.1% bovine casein (no human serum albumin), read-out: hGCGR EC50, nM (SEM, n)
[2] = HEK293, percent of maximal response to GIP(1-42)NH2, 37° C., 0.1% bovine casein, arithmetic mean, read-out: hGIPR Emax, % ± SEM
[3] = cAMP, incubated at 37° C., 0.1% bovine casein (no human serum albumin), read-out: hGIPR EC50, nM (SEM, n)

T1 sequence (P47871 26-477): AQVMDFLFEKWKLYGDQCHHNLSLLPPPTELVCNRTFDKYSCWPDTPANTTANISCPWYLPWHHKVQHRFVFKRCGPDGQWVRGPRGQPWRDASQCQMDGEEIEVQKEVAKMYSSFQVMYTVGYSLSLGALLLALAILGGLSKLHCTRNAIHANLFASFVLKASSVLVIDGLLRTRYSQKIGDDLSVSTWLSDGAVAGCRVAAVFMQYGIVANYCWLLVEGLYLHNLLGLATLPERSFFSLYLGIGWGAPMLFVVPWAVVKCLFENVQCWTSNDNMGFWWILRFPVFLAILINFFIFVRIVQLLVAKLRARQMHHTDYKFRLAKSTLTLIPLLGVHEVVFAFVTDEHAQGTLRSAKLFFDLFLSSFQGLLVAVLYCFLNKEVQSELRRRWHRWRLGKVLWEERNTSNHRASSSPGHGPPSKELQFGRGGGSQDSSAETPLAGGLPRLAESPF

`CC[C@H](C)[C@H](NC(=O)[C@H](CC(C)C)NC(=O)[C@](C)(Cc1ccccc1)NC(=O)[C@H](CCCCNC(=O)COCCOCCNC(=O)COCCOCCNC(=O)CC[C@H](NC(=O)CCCCCCCCCCCCC(=O)O)C(=O)O)NC(=O)[C@@H](NC(=O)[C@H](Cc1ccccc1)NC(=O)[C@H](CCC(=O)O)NC(=O)C(C)(C)NC(=O)[C@H](CCC(N)=O)NC(=O)[C@H](C)NC(=O)[C@H](CCCCNC(=O)COCCOCCNC(=O)COCCOCCNC(=O)CC[C@H](NC(=O)CCCCCCCCCCCCC(=O)O)C(=O)O)NC(=O)[C@H](CCCN)NC(=O)[C@H](CC(=O)O)NC(=O)[C@H](CC(C)C)NC(=O)[C@](C)(CC(C)C)NC(=O)[C@@H](NC(=O)[C@H](CO)NC(=O)[C@H](Cc1ccncc1)NC(=O)[C@H](CC(=O)O)NC(=O)[C@H](CO)NC(=O)[C@@H](NC(=O)[C@](C)(Cc1ccccc1F)NC(=O)[C@@H](NC(=O)CNC(=O)[C@H](CCC(=O)O)NC(=O)C(C)(C)NC(=O)[C@@H](N)Cc1ccc(O)cc1)[C@@H](C)O)[C@@H](C)O)[C@@H](C)CC)[C@@H](C)CC)C(=O)N[C@@H](CCC(=O)O)C(=O)NCC(=O)NCC(=O)N1CCC[C@H]1C(=O)N[C@@H](CO)C(=O)N[C@@H](CO)C(=O)NCC(=O)N[C@@H](C)C(=O)N1CCC[C@H]1C(=O)N1CCC[C@H]1C(=O)N1CCC[C@H]1C(=O)N[C@@H](CO)C(N)=O` [Example 83] gave an EC50 (hGCGR; hGCGR EC50, nM (SEM, n), cAMP, incubated at 37° C., 0.1% bovine casein (no human serum albumin)) of over 9950 nM, an Emax (hGIPR; HEK293, read-out: hGIPR Emax, % ± SEM, percent of maximal response to GIP(1-42)NH2, 37° C., 0.1% bovine casein, arithmetic mean) of 89.6 ± 7.35% and an EC50 (hGIPR; hGIPR EC50, nM (SEM, n), cAMP, incubated at 37° C., 0.1% bovine casein (no human serum albumin)) of 0.0223 nM.

In the case of `CC[C@H](C)[C@H](NC(=O)[C@H](CCCN)NC(=O)[C@H](CC(=O)O)NC(=O)[C@H](CC(C)C)NC(=O)[C@](C)(CC(C)C)NC(=O)[C@@H](NC(=O)[C@H](CO)NC(=O)[C@H](CCCCNC(=O)COCCOCCNC(=O)COCCOCCNC(=O)CC[C@H](NC(=O)CCCCCCCCCCCCC(=O)O)C(=O)O)NC(=O)[C@H](CC(=O)O)NC(=O)[C@H](CO)NC(=O)[C@@H](NC(=O)[C@](C)(Cc1ccccc1F)NC(=O)[C@@H](NC(=O)CNC(=O)[C@H](CCC(=O)O)NC(=O)C(C)(C)NC(=O)[C@@H](N)Cc1ccc(O)cc1)[C@@H](C)O)[C@@H](C)O)[C@@H](C)CC)C(=O)N[C@@H](C)C(=O)N[C@@H](CCC(N)=O)C(=O)NC(C)(C)C(=O)N[C@@H](CCCCNC(=O)COCCOCCNC(=O)COCCOCCNC(=O)CC[C@H](NC(=O)CCCCCCCCCCCCC(=O)O)C(=O)O)C(=O)N[C@@](C)(Cc1ccccc1)C(=O)N[C@H](C(=O)N[C@H](CCC(=O)O)C(=O)N[C@@](C)(Cc1ccc(O)cc1)C(=O)N[C@@H](CC(C)C)C(=O)N[C@H](C(=O)N[C@@H](CCC(=O)O)C(=O)NCC(=O)NCC(=O)N1CCC[C@H]1C(=O)N[C@@H](CO)C(=O)N[C@@H](CO)C(=O)NCC(=O)N[C@@H](C)C(=O)N1CCC[C@H]1C(=O)N1CCC[C@H]1C(=O)N1CCC[C@H]1C(=O)N[C@@H](CO)C(N)=O)[C@@H](C)CC)[C@@H](C)CC` [Example 109], the EC50 (hGCGR; [1]) is reported as over 9950 nM, the Emax (hGIPR; [2]) is reported as 84.8% and the EC50 (hGIPR; [3]) is reported as 0.0236 nM.

`CC[C@H](C)[C@H](NC(=O)[C@H](CC(C)C)NC(=O)[C@](C)(Cc1ccc(O)cc1)NC(=O)[C@@H](CCC(=O)O)NC(=O)[C@@H](NC(=O)[C@H](Cc1ccccc1)NC(=O)[C@H](CCC(=O)O)NC(=O)C(C)(C)NC(=O)[C@H](CCC(N)=O)NC(=O)[C@H](C)NC(=O)[C@H](CCCCNC(=O)COCCOCCNC(=O)COCCOCCNC(=O)CC[C@H](NC(=O)CCCCCCCCCCCCC(=O)O)C(=O)O)NC(=O)CNC(=O)[C@H](CC(=O)O)NC(=O)[C@H](CC(C)C)NC(=O)[C@](C)(CC(C)C)NC(=O)[C@@H](NC(=O)[C@H](CO)NC(=O)[C@H](Cc1ccncc1)NC(=O)[C@H](CC(=O)O)NC(=O)[C@H](CO)NC(=O)[C@@H](NC(=O)[C@](C)(Cc1ccccc1F)NC(=O)[C@@H](NC(=O)CNC(=O)[C@H](CCC(=O)O)NC(=O)C(C)(C)NC(=O)[C@@H](N)Cc1ccc(O)cc1)[C@@H](C)O)[C@@H](C)O)[C@@H](C)CC)[C@@H](C)CC)C(=O)N[C@@H](CCC(=O)O)C(=O)NCC(=O)NCC(=O)N[C@@H](CCCCNC(=O)COCCOCCNC(=O)COCCOCCNC(=O)CC[C@H](NC(=O)CCCCCCCCCCCCC(=O)O)C(=O)O)C(=O)N[C@@H](CO)C(=O)N[C@@H](CO)C(=O)NCC(=O)N[C@@H](C)C(=O)N1CCC[C@H]1C(=O)N1CCC[C@H]1C(=O)N1CCC[C@H]1C(=O)N[C@@H](CO)C(N)=O` [Example 101] was tested, and the EC50 (hGCGR; [1]) was over 9950 nM and the Emax (hGIPR; [2]) was 92.1%.

Work on `CC[C@H](C)[C@H](NC(=O)[C@H](CC(C)C)NC(=O)[C@](C)(Cc1ccc(O)cc1)NC(=O)[C@@H](CCC(=O)O)NC(=O)[C@@H](NC(=O)[C@H](Cc1ccccc1)NC(=O)[C@H](CCC(=O)O)NC(=O)C(C)(C)NC(=O)[C@H](CCC(N)=O)NC(=O)[C@H](C)NC(=O)[C@H](CCC(N)=O)NC(=O)[C@H](CCCN)NC(=O)[C@H](CC(=O)O)NC(=O)[C@H](CC(C)C)NC(=O)[C@](C)(CC(C)C)NC(=O)[C@@H](NC(=O)[C@H](CO)NC(=O)[C@H](Cc1ccncc1)NC(=O)[C@H](CC(=O)O)NC(=O)[C@H](CO)NC(=O)[C@@H](NC(=O)[C@](C)(Cc1ccccc1F)NC(=O)[C@@H](NC(=O)CNC(=O)[C@H](CCC(=O)O)NC(=O)C(C)(C)NC(=O)[C@@H](N)Cc1ccc(O)cc1)[C@@H](C)O)[C@@H](C)O)[C@@H](C)CC)[C@@H](C)CC)C(=O)N[C@@H](CCCCNC(=O)COCCOCCNC(=O)COCCOCCNC(=O)CC[C@H](NC(=O)CCCCCCCCCCCCC(=O)O)C(=O)O)C(=O)NCC(=O)NCC(=O)N[C@@H](CCCCNC(=O)COCCOCCNC(=O)COCCOCCNC(=O)CC[C@H](NC(=O)CCCCCCCCCCCCC(=O)O)C(=O)O)C(=O)N[C@@H](CO)C(=O)N[C@@H](CO)C(=O)NCC(=O)N[C@@H](C)C(=O)N1CCC[C@H]1C(=O)N1CCC[C@H]1C(=O)N1CCC[C@H]1C(=O)N[C@@H](CO)C(N)=O` [Example 86] yielded an EC50 (hGCGR; [1]) of over 9950 nM, an Emax (hGIPR; [2]) of 94.2 ± 1.16% and an EC50 (hGIPR; [3]) of 0.0184 nM.

`CC[C@H](C)[C@H](NC(=O)[C@H](CC(C)C)NC(=O)[C@](C)(Cc1ccc(O)cc1)NC(=O)[C@@H](CCC(=O)O)NC(=O)[C@@H](NC(=O)[C@H](Cc1ccccc1)NC(=O)[C@H](CCC(=O)O)NC(=O)C(C)(C)NC(=O)[C@H](CCC(N)=O)NC(=O)[C@H](C)NC(=O)[C@H](CCCCNC(=O)COCCOCCNC(=O)COCCOCCNC(=O)CC[C@H](NC(=O)CCCCCCCCCCCCC(=O)O)C(=O)O)NC(=O)[C@H](CCCN)NC(=O)[C@H](CC(=O)O)NC(=O)[C@H](CC(C)C)NC(=O)[C@](C)(CC(C)C)NC(=O)[C@@H](NC(=O)[C@H](CO)NC(=O)[C@H](Cc1ccc(OC)cc1)NC(=O)[C@H](CC(=O)O)NC(=O)[C@H](CO)NC(=O)[C@@H](NC(=O)[C@](C)(Cc1ccccc1F)NC(=O)[C@@H](NC(=O)CNC(=O)[C@H](CCC(=O)O)NC(=O)C(C)(C)NC(=O)[C@@H](N)Cc1ccc(O)cc1)[C@@H](C)O)[C@@H](C)O)[C@@H](C)CC)[C@@H](C)CC)C(=O)N[C@@H](CCCCNC(=O)COCCOCCNC(=O)COCCOCCNC(=O)CC[C@H](NC(=O)CCCCCCCCCCCCC(=O)O)C(=O)O)C(=O)NCC(=O)NCC(=O)N1CCC[C@H]1C(=O)N[C@@H](CO)C(=O)N[C@@H](CO)C(=O)NCC(=O)N[C@@H](C)C(=O)N1CCC[C@H]1C(=O)N1CCC[C@H]1C(=O)N1CCC[C@H]1C(=O)N[C@@H](CO)C(N)=O` [Example 260] showed an EC50 (hGCGR; 0.1% bovine casein and 1.0% human serum albumin, 37° C., read-out: hGCGR EC50, nM (SEM, n)) of over 9950 nM, an EC50 (hGCGR; cAMP, 37° C., 0.1% bovine casein (no human serum albumin), read-out: hGCGR EC50, nM (SEM, n)) of over 9950 nM and an EC50 (hGIPR; 0.1% bovine casein and 1.0% human serum albumin, 37° C., read-out: hGIPR EC50, nM (SEM, n)) of 3.27 nM. It also gave an Emax (hGIPR; HEK293, 0.1% bovine casein and 1.0% human serum albumin, 37° C., percent of maximal response to GIP(1-42)NH2, read-out: hGIPR Emax, % ± SEM) of 83%, an Emax (hGIPR; HEK293, cAMP, 37° C., 0.1% bovine casein, percent of maximal response to GIP(1-42)NH2, arithmetic mean, read-out: hGIPR Emax, % ± SEM) of 113% and an EC50 (hGIPR; cAMP, 37° C., 0.1% bovine casein (no human serum albumin), read-out: hGIPR EC50, nM (SEM, n)) of 0.0239 nM.
